The values that follow come from ChEMBL document CHEMBL1201862, “PubChem BioAssay data set” (2004).

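Compound exposure: 48 hours, 5 concentrations, 96-well plates. At the GI50, growth is halved.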 Activity calls are given as the source filed them. Cut-off read from the data, not from the text of the source: active = GI50 up to about 1.1 µM and inactive = higher.

Among the test systems are OVCAR-5; SF-295; SF-268; A549; MDA-MB-231; NCI-H522; SR; UACC-62; IGROV-1; CAKI-1; TK-10; HT-29; U-251; M14; NCI-H226; HL-60; RXF 393; HOP-92; Malme-3M.
Common to all, as to assay: growth of human tumour cells (NCI), 48 h

Turning to `CCCCCCCCC/C=C1/CC(CO)(COC(=O)CC(C(C)C)C(C)C)OC1=O` (configuration not stated), the GI50 was 12.1 µM (inactive) with OVCAR-5; 0.675 µM (active) in the test on SF-295; 11.3 µM (inactive) in the test on SF-268; 1.58 µM (inactive) in the test with A549; 2.59 µM (inactive) with MDA-MB-231; 10.4 µM (inactive) in the test with NCI-H522. In addition, the GI50 in the test on SR was 17.8 µM (inactive); with UACC-62, 12.5 µM (inactive); in the test on IGROV-1, 15.4 µM (inactive); with CAKI-1, 4.18 µM (inactive); in the test with TK-10, 2.89 µM (inactive); in the test on HT-29, 16.3 µM (inactive). Besides, the GI50 in the test with U-251 was 11.9 µM (inactive); in the test on M14 it was 2.39 µM (inactive); in the test with NCI-H226 it was 6.07 µM (inactive); in the test with HL-60 it was 0.271 µM (active); in the test on RXF 393 it was 13.9 µM (inactive); in the test on HOP-92, 1.28 µM (inactive). For the same compound, in the test on Malme-3M, the GI50 is 0.515 µM (active).
Regarding `CC1(C)N=C(N)N=C(N)N1c1cccc(CSc2ccccc2)c1`, the GI50 was 52.1 µM (inactive) in the test on OVCAR-5; 1.1 µM (active) in the test on SF-295; 0.0363 µM (active) in the test with SF-268; 0.0301 µM (active) in the test with A549; > 100 µM (inactive) in the test with MDA-MB-231; 0.318 µM (active) with NCI-H522. Moreover, the GI50 in the test with SR is < 0.01 µM (active); in the test on UACC-62, 0.192 µM (active); with IGROV-1, 0.0301 µM (active); with CAKI-1 it was 23.6 µM (inactive); with TK-10, 78.7 µM (inactive); in the test with HT-29, 0.0791 µM (active). For the same compound, the GI50 is 0.045 µM (active) with U-251; 0.346 µM (active) in the test with M14; 0.916 µM (active) in the test on NCI-H226; < 0.01 µM (active) in the test on HL-60; 0.169 µM (active) with RXF 393; 32 µM (inactive) in the test with HOP-92. Also, in the test with Malme-3M, the GI50 is 8.89 µM (inactive).
`C[C@]12CC[C@H]3[C@@H](CC[C@]4(O)C[C@@H](O)CC[C@]34/C=N/O)[C@@]1(O)CC[C@@H]2C1=COC(=O)C1`: the GI50 in the test with OVCAR-5 was 0.318 µM (active); in the test on SF-295, 0.0545 µM (active); with SF-268 it was 0.0728 µM (active); in the test with A549 it was 0.0336 µM (active); with MDA-MB-231, 0.589 µM (active); with NCI-H522, 0.0323 µM (active). In addition, the GI50 with SR was 0.0504 µM (active); in the test with UACC-62, 0.303 µM (active); in the test on IGROV-1, 0.136 µM (active); in the test with CAKI-1, 0.0363 µM (active); in the test on TK-10, 0.0845 µM (active); in the test on HT-29, 0.146 µM (active). Also, the GI50 in the test with U-251 was 0.212 µM (active); in the test with M14 it was 0.289 µM (active); in the test on NCI-H226 it was 0.391 µM (active); in the test with HL-60 it was 0.131 µM (active); in the test with RXF 393, 0.0318 µM (active); in the test on HOP-92, 0.2 µM (active). The GI50 in the test on Malme-3M was 0.169 µM (active).
Turning to `Cc1ccc2c(c1)C(=O)C1(C2)Cc2cccc(C)c2C1=O` (configuration not stated), the GI50 in the test on OVCAR-5, with SF-295, in the test with SF-268, in the test with A549, in the test on MDA-MB-231 and in the test with NCI-H522 was > 100 µM (inactive) in each case. Besides, the GI50 in the test with SR is > 100 µM (inactive); in the test on UACC-62, 77.3 µM (inactive); with IGROV-1, > 100 µM (inactive); in the test on CAKI-1, 0.0418 µM (active); with TK-10, > 100 µM (inactive); with HT-29, > 100 µM (inactive). Besides, the GI50 with U-251 was > 100 µM (inactive); in the test on M14, > 100 µM (inactive); in the test with NCI-H226, > 100 µM (inactive); in the test with HL-60, > 100 µM (inactive); with RXF 393, > 100 µM (inactive); in the test on HOP-92, 55 µM (inactive). Besides, the GI50 in the test on Malme-3M is > 100 µM (inactive).
`OC1(c2ccccc2)CSC2=Nc3ccccc3C3CCN1N23` (configuration not stated): the GI50 in the test with OVCAR-5 was 11.1 µM (inactive); in the test on SF-295 it was 6.47 µM (inactive); in the test with SF-268 it was 21.7 µM (inactive); in the test with A549, 26.8 µM (inactive); in the test with MDA-MB-231, 15.5 µM (inactive); in the test with NCI-H522 it was 20 µM (inactive). In addition, the GI50 in the test with SR was 20 µM (inactive); in the test on UACC-62, 18.7 µM (inactive); with IGROV-1 it was 13.3 µM (inactive); in the test on CAKI-1, 21.1 µM (inactive); in the test with TK-10, 22.3 µM (inactive); with HT-29, 18.1 µM (inactive). The GI50 is 14.9 µM (inactive) with U-251; 21.9 µM (inactive) in the test with M14; 38.1 µM (inactive) with NCI-H226; 30.1 µM (inactive) in the test with HL-60; 20.9 µM (inactive) in the test with RXF 393; 18.9 µM (inactive) in the test on HOP-92. The GI50 with Malme-3M is 22.4 µM (inactive).
As for `COC1(OC)CC(CO)(CNc2cc(Cl)nc(N)n2)C1`, the GI50 in the test on OVCAR-5, with SF-295, in the test on SF-268, with A549, in the test with MDA-MB-231 and in the test on NCI-H522 was > 100 µM (inactive) throughout. For the same compound, the GI50 in the test on SR, in the test on UACC-62, with IGROV-1, in the test on CAKI-1, in the test with TK-10 and in the test with HT-29 was > 100 µM (inactive) in each case. In addition, the GI50 is > 100 µM (inactive) in the test with U-251; > 100 µM (inactive) in the test on NCI-H226; > 100 µM (inactive) in the test with HL-60; 55.7 µM (inactive) with RXF 393; > 10 µM (inactive) in the test with HOP-92; > 100 µM (inactive) in the test with Malme-3M.
For `Cc1c[nH]c2c(O)cc3c(c12)[C@H](CCl)CN3C(=O)c1cc2cc(NC(=O)Nc3ccc4[nH]c(C(=O)N5C[C@@H](CCl)c6c5cc(O)c5[nH]cc(C)c65)cc4c3)ccc2[nH]1` [BIZELESIN], the GI50 is 0.00136 µM (active) in the test with OVCAR-5; 6.35 µM (inactive) in the test on SF-295; 2.82 µM (inactive) in the test on SF-268; 11 µM (inactive) with A549; 26.5 µM (inactive) with MDA-MB-231; < 0.001 µM (active) with NCI-H522. Further, the GI50 was 0.0832 µM (active) with SR; 0.701 µM (active) with UACC-62; 19.4 µM (inactive) in the test on IGROV-1; 9.16 µM (inactive) with CAKI-1; 27.1 µM (inactive) in the test with HT-29; 0.631 µM (active) in the test with M14. In addition, the GI50 is 0.183 µM (active) in the test on NCI-H226; 0.00288 µM (active) with HL-60; > 100 µM (inactive) in the test with RXF 393; 48.5 µM (inactive) with HOP-92; 13.7 µM (inactive) in the test with Malme-3M.
On to `NC(=O)/C=C/NC(=O)/C=N\O`, for which the GI50 in the test on OVCAR-5, in the test with SF-295, in the test on SF-268, with MDA-MB-231, with NCI-H522 and in the test with SR was > 100 µM (inactive) throughout. For the same compound, the GI50 with UACC-62, in the test on IGROV-1, in the test with CAKI-1, with HT-29, in the test with U-251 and in the test with M14 was > 100 µM (inactive) in each case. Further, the GI50 in the test with NCI-H226, with HL-60, with RXF 393, with HOP-92 and in the test on Malme-3M was > 100 µM (inactive) each time.
